{
  "source": "paper PMC7083851",
  "about": "“Extended pharmacodynamic responses observed upon PROTAC-mediated degradation of RIPK2” (Communications Biology, 2020)",
  "key": {"[1]": {"molecular_target": "T1, RIPK2 (Homo sapiens, UniProt O43353)", "T1 sequence (O43353 whole entry)": "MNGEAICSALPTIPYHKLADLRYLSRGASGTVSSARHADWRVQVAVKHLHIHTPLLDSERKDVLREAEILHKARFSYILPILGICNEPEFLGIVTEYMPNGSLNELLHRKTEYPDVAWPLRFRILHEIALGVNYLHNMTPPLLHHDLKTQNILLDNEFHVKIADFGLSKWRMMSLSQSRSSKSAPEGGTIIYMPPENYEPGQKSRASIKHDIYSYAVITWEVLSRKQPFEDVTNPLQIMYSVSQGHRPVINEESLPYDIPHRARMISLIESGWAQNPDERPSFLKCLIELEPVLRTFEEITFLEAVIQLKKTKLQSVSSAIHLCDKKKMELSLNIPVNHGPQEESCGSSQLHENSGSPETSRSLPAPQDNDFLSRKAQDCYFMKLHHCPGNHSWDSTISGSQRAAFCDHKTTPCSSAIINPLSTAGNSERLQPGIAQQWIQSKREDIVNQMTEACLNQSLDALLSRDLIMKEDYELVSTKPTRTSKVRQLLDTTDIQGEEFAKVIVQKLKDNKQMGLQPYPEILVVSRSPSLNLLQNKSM", "assay": "RIPK2 fluorescence polarisation binding assay"}, "[2]": {"test_system": "MDP-induced TNFα release", "assay": "MDP-induced TNFα release in human whole blood", "type": "cell-based", "conditions": "inhibition of MDP-induced TNFα release", "description": "(§1) Before treatment with compound or vehicle, THP1 cells, human and rat PBMCs were counted using Vi-Cell cell counter (Invitrogen) and adjusted to a final cell density of […] using complete growth medium. Cells or whole blood were treated with vehicle (0.1% DMSO) or fixed concentrations of compound up to 1 μM in half log unit increments and incubated for the time period indicated in the figure.\nWhere the assessment of cytokines was performed, L18-MDP was added to the cell culture media (1 μg/ml) or to the rat blood samples (100 ng/ml) and samples were incubated for up to 4 h. […]\nCytokine measurement assay: Cytokine levels were measured in rat plasma or rat PBMCs cell culture supernatants using rat V-Plex TNFα, in human plasma or human PBMCs cell culture supernatants with either TNFα tissue culture or 7-plex kit. Rat serum and tissues samples from the in vivo L18-MDP acute inflammation model were analyzed using the rat TNFα, Il-6 and IL-8 U-Plex kits. […] Levels of cytokines spontaneously released from human colon biopsies cell culture supernatants were measured using Human IL-1 beta/IL-1F2 DuoSet ELISA (Bio-techne), Human IL-6 ELISA (Immunotools) and Human TNF-alpha DuoSet ELISA (Bio-techne). […] The MSD plates were analyzed using the MSD sector imager 6000 plate reader and cytokines concentration (pg/ml) was obtained by using the MSD DISCOVERY WORKBENCH software version 4.0.12.1 […]"}, "[3]": {"assay": "Microsomal CLint, rat", "type": "in vitro ADME", "conditions": "rat microsomes", "description": "(§2) Metabolic stability was performed at Cyprotex (UK). Pooled liver microsomes / cryopreserved pooled hepatocytes were purchased from a commercial supplier (BD Biosciences or Corning/InVitro Technologies).\n(§3) The final incubation volume was 500 μL. A minus cofactor control incubation was included for each compound tested where 0.05 M phosphate buffer pH 7.4 was added instead of NADPH (minus NADPH). Each compound was incubated for 0, 5, 15, 30, and 45 min. The control (minus NADPH) was incubated for 45 min only.\n(§4) All incubations were terminated by transferring 50 μL of incubate to 100 μL of acetonitrile containing internal standard at the appropriate time points. The termination plates were centrifuged at 2500 rpm for 20–30min at 4 °C to precipitate the protein. Following protein precipitation, samples were analysed using quantitative LC-MS/MS. A plot of ln peak area ratio (compound peak area/internal standard peak area) against time, yielded the gradient of the line.\n(§5) Calculated intrinsic clearance values of control compounds were compared with the Cyprotex data library to confirm the appropriate activity of the microsomal/hepatocyte batch and data acceptance."}, "[4]": {"assay": "Microsomal CLint, human", "type": "in vitro ADME", "conditions": "human microsomes", "description": "as §2, §3, §4, §5"}, "[5]": {"assay": "High-throughput precipitation solubility, chemiluminescent nitrogen-specific detection (CLND)", "type": "physicochemical", "conditions": "high-throughput precipitation assay"}, "[6]": {"assay": "ChromLogD7.4 high-throughput chromatographic lipophilicity", "type": "physicochemical"}, "[7]": {"molecular_target": "T1, RIPK2", "assay": "RIPK2 degradation in THP-1 cells, capillary-based immunoassay, 18 h", "type": "cell-based", "design": "endogenous in cells; host or cells: THP-1 (ATCC TIB-202)", "conditions": "for RIPK2 level relative to DMSO control, mean / RIPK2 level relative to DMSO control, replicate: THP-1, 18 h", "description": "The compounds were incubated with THP-1 cells for 18 h after which RIPK2 levels were determined using a capillary-based immunoassay (n = 3). All three PROTACs potently degraded RIPK2 in a concentration dependent manner (Fig. 1). […]. This discrepancy between the in vitro RIPK2 degradation and binding potency provides possible evidence for a catalytic mechanism of action of this compound.\nas §1\nSimple Western immunoassay: Cell lysates were mixed with 5× concentrated master mix (Protein Simple) and denatured at 95 °C on a heat block for 5 min together with the provided ladder (Protein Simple). Antibodies were diluted in the provided buffer as following: anti-RIPK2 (1:10 or 1:50), anti-cIAP1(1:10), anti-cIAP2 (1:10), anti-XIAP (1:10), mouse anti-β-actin (Abcam - 1:1000), rabbit anti-β-actin (Abcam - 1:50) and anti-vinculin (1:100). All reagents (blocking buffer, primary and secondary antibodies, streptavadin, luminol/peroxide, separation matrix, stacking matrix and water) were added to the Protein Simple plate containing the ladder and lysates and the plate was placed in a Protein Simple Western instrument and the Simple Western default size assay protocol was used. All samples were analyzed using the associated Compass software 3.1.7. The area under the peak values obtained for RIPK2, cIAP1, cIAP2 or XIAP were normalized relative to the control protein values.\nIn vitro experimental data were analyzed using a 4-parameter logistic equation in GraphPad Prism 5.0.4. to generate an estimate of the half-maximal concentration and maximal degradation, DC50 and Dmax value respectively, for concentration-degradation relationships. Cytokine levels were analyzed in a similar manner to yield IC50 and Imax values. […] Where analysis to a sigmoidal relationship was not possible, the data points are shown as mean ± s.e.m."}},
  "note": "“And” between values parts separate entries of the source, which are not always exact repeats. Equal entries are not always repeated.",
  "data": [
    {"smiles": "CN[C@@H](C)C(=O)N[C@H](C(=O)N1Cc2cc(OCCOCCOCCOCCOc3cc4nccc(Nc5ccc6scnc6c5)c4cc3S(=O)(=O)C(C)(C)C)ccc2C[C@H]1C(=O)N[C@@H]1CCCc2ccccc21)C(C)(C)C", "note": "[PROTAC 2]", "values": [
      {"measurement": "IC50", "setting": "[1]", "value": 10, "unit": "nM"},
      {"measurement": "hWB MDP pIC50 ± SEM (n)", "setting": "[2]", "value": "7.95 ± 0"},
      {"measurement": "microsomal turnover", "setting": "[3]", "value": 11, "unit": "mL/min/g liver"},
      {"measurement": "microsomal turnover", "setting": "[4]", "value": 29, "unit": "mL/min/g liver"},
      {"measurement": "CLND solubility, in words", "setting": "[5]", "value": "poor solubility"},
      {"measurement": "ChromLogD7.4", "setting": "[6]", "value": 6.1},
      {"measurement": "RIPK2 level relative to DMSO control, mean", "setting": "[7]; concentration 5.64503e-11 (uM)", "value": 117.46, "unit": "%"},
      {"measurement": "RIPK2 level relative to DMSO control, replicate", "setting": "[7]; concentration 5.64503e-11 (uM)", "value": "117.27% and 131.32% and 103.77%"},
      {"measurement": "RIPK2 level relative to DMSO control, mean", "setting": "[7]; concentration 1.69351e-10 (uM)", "value": 97.22, "unit": "%"},
      {"measurement": "RIPK2 level relative to DMSO control, replicate", "setting": "[7]; concentration 1.69351e-10 (uM)", "value": "71.86% and 108.98% and 110.82%"},
      {"measurement": "RIPK2 level relative to DMSO control, mean", "setting": "[7]; concentration 5.08053e-10 (uM)", "value": 57.20, "unit": "%"},
      {"measurement": "RIPK2 level relative to DMSO control, replicate", "setting": "[7]; concentration 5.08053e-10 (uM)", "value": "41.71% and 72.70% and 57.18%"},
      {"measurement": "RIPK2 level relative to DMSO control, mean", "setting": "[7]; concentration 1.52416e-9 (uM)", "value": 26.83, "unit": "%"},
      {"measurement": "RIPK2 level relative to DMSO control, replicate", "setting": "[7]; concentration 1.52416e-9 (uM)", "value": "18.29% and 36.88% and 25.33%"},
      {"measurement": "RIPK2 level relative to DMSO control, mean", "setting": "[7]; concentration 4.57247e-9 (uM)", "value": 15.28, "unit": "%"},
      {"measurement": "RIPK2 level relative to DMSO control, replicate", "setting": "[7]; concentration 4.57247e-9 (uM)", "value": "12.82% and 16.44% and 16.58%"},
      {"measurement": "RIPK2 level relative to DMSO control, mean", "setting": "[7]; concentration 1.37174e-8 (uM)", "value": 8.47, "unit": "%"},
      {"measurement": "RIPK2 level relative to DMSO control, replicate", "setting": "[7]; concentration 1.37174e-8 (uM)", "value": "4.51% and 15.08% and 5.82%"},
      {"measurement": "RIPK2 level relative to DMSO control, mean", "setting": "[7]; concentration 4.11523e-8 (uM)", "value": 4.73, "unit": "%"},
      {"measurement": "RIPK2 level relative to DMSO control, replicate", "setting": "[7]; concentration 4.11523e-8 (uM)", "value": "6.91% and 6.83% and 0.44%"},
      {"measurement": "RIPK2 level relative to DMSO control, mean", "setting": "[7]; concentration 1.23457e-7 (uM)", "value": 7.39, "unit": "%"},
      {"measurement": "RIPK2 level relative to DMSO control, replicate", "setting": "[7]; concentration 1.23457e-7 (uM)", "value": "4.63% and 11.01% and 6.53%"},
      {"measurement": "RIPK2 level relative to DMSO control, mean", "setting": "[7]; concentration 3.7037e-7 (uM)", "value": 9.35, "unit": "%"},
      {"measurement": "RIPK2 level relative to DMSO control, replicate", "setting": "[7]; concentration 3.7037e-7 (uM)", "value": "5.28% and 16.09% and 6.68%"},
      {"measurement": "RIPK2 level relative to DMSO control, mean", "setting": "[7]; concentration 1.11111e-6 (uM)", "value": 11.12, "unit": "%"},
      {"measurement": "RIPK2 level relative to DMSO control, replicate", "setting": "[7]; concentration 1.11111e-6 (uM)", "value": "12.33% and 13.80% and 7.23%"},
      {"measurement": "RIPK2 level relative to DMSO control, mean", "setting": "[7]; concentration 3.33333e-6 (uM)", "value": 14.86, "unit": "%"},
      {"measurement": "RIPK2 level relative to DMSO control, replicate", "setting": "[7]; concentration 3.33333e-6 (uM)", "value": "10.80% and 18.84% and 14.95%"},
      {"measurement": "RIPK2 level relative to DMSO control, mean", "setting": "[7]; concentration 1e-5 (uM)", "value": 10.81, "unit": "%"},
      {"measurement": "RIPK2 level relative to DMSO control, replicate", "setting": "[7]; concentration 1e-5 (uM)", "value": "10.44% and 15.52% and 6.46%"},
      {"measurement": "pDC50 (log half-maximal degradation concentration) of RIPK2", "setting": "[7]; THP-1 cells, 18 h, n = 3", "value": "9.4 ± 0.1"}
    ]}
  ]
}
